The target of one experiment is T1, BRG1 (Homo sapiens, UniProt P51532).
T1 construct: either BRM primary antibody (Cell signaling Cat #11966) or BRG primary antibody (Abcam, ab 110641); endogenous in cells; host or cells: SW1573
The experiment is described as follows: Immunofluorescence assay for BRG1 degradation in SW1573 cells. Type of experiment: cell-based. The conditions noted are these: 20 hours incubation; for DC50: immunofluorescence mean nuclear signal, read-out: BRG1 IF Degradation IC50; for Dmax: SW1573, 20 h, normalized to a known degrader control, read-out: BRG1 IF Degradation Sinf (%). The method in brief:
(§1)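 Imaging-based readout in SW1573: 20 h dosing, formaldehyde fixation, antibody staining for either remodeler, nuclear intensity per cell quantified. Values normalized to control degrader; floating-maximum fit.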

Another experiment addresses BRM (Homo sapiens, UniProt P51531). The experiment can be described thus: Immunofluorescence assay for BRM degradation in SW1573 cells. Type of experiment: cell-based. More on the design: treated overnight at 4° C. with either BRM primary antibody (Cell signaling Cat #11966) or BRG primary antibody; endogenous in cells; host or cells: SW1573. Conditions: 20 hours incubation; for DC50: immunofluorescence mean nuclear signal, read-out: BRM IF Degradation IC50; for BRM IF Degradation Sinf (%): normalized to a known degrader control. The method in brief: as §1

T1 sequence (P51532 whole entry): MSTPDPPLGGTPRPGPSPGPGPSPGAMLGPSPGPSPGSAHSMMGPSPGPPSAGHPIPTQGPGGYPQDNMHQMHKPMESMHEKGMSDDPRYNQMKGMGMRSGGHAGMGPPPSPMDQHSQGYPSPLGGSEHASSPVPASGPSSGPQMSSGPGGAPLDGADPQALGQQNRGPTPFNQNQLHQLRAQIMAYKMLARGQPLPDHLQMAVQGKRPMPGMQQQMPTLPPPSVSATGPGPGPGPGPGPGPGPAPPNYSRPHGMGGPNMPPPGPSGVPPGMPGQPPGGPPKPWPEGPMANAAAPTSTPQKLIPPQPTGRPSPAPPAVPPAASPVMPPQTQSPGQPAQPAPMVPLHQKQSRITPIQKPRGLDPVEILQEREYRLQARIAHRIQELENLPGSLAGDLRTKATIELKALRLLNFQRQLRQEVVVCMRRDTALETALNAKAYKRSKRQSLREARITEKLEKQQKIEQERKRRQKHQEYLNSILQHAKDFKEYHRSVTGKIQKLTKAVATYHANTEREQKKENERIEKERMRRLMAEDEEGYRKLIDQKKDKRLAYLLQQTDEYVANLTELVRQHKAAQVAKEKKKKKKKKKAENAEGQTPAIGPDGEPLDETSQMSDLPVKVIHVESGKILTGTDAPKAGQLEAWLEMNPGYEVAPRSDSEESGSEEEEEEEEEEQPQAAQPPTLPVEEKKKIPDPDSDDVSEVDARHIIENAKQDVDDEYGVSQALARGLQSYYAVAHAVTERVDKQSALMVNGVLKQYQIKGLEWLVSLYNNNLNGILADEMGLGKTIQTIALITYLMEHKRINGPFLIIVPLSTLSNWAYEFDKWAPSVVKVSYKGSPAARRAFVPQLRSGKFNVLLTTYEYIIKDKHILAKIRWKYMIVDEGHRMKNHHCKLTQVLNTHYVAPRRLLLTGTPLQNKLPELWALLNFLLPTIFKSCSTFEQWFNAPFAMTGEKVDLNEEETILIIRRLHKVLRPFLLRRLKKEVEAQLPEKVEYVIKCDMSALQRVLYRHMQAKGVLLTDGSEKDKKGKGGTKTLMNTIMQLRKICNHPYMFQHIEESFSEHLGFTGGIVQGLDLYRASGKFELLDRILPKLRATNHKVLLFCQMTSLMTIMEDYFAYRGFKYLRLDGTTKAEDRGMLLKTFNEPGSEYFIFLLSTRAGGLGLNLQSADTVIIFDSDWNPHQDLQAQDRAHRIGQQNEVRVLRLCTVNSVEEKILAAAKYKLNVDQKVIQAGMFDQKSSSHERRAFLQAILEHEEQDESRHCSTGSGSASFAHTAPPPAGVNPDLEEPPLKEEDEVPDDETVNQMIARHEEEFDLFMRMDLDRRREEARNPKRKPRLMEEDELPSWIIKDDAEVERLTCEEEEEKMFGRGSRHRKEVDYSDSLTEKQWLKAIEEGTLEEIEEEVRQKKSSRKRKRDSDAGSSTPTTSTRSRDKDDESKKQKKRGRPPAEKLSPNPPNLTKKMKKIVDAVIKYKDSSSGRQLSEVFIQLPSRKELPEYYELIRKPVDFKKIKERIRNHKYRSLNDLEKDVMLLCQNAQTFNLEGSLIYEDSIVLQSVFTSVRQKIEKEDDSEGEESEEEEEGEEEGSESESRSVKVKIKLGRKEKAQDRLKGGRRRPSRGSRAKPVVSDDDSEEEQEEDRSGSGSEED
Sequence of BRM (P51531 whole entry): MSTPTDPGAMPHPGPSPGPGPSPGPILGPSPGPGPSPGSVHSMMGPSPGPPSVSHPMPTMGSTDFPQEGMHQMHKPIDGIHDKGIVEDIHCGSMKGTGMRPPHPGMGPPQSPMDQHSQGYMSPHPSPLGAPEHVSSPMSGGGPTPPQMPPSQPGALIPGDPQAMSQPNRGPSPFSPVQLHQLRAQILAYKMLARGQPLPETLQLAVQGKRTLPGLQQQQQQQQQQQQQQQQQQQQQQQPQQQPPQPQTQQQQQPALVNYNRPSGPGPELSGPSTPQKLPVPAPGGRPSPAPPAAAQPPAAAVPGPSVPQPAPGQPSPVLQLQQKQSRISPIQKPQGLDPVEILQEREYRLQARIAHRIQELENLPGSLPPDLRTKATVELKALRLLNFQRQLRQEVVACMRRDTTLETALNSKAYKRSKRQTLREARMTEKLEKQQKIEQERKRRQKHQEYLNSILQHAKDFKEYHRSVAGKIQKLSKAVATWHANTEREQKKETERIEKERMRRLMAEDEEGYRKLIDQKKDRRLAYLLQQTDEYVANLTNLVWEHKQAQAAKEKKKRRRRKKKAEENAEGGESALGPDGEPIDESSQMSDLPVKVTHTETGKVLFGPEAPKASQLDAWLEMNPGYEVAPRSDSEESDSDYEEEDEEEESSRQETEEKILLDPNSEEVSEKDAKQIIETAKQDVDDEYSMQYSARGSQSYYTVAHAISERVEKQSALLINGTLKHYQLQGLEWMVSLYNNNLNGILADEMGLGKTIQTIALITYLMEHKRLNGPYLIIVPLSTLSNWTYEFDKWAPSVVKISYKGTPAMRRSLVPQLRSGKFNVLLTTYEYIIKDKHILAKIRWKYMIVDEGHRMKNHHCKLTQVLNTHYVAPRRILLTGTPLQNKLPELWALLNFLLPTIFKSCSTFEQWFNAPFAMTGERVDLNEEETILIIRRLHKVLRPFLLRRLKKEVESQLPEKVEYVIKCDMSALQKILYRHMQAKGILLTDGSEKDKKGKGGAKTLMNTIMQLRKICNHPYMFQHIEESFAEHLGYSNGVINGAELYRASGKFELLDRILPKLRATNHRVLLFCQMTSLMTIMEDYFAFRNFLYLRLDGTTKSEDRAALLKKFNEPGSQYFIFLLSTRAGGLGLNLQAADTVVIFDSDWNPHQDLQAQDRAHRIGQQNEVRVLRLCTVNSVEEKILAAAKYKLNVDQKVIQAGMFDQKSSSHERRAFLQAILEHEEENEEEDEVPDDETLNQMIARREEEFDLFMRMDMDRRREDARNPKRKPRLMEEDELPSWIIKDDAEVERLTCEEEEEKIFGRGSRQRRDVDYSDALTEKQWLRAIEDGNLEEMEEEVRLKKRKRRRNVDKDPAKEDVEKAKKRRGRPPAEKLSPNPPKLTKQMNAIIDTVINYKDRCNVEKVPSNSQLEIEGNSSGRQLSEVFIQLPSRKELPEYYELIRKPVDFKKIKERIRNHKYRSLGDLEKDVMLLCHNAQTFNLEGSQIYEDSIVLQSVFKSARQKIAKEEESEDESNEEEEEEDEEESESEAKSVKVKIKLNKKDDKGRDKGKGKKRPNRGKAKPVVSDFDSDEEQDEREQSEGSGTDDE

For `CC1CC(O)CCN(CC#Cc2cc(N3C4CCC3CN(c3cc(-c5ccccc5O)nnc3N)C4)ccn2)C1` (centres unmarked) [Compound 219, 1-[3-[4-[3-[3-amino-6-(2-hydroxyphenyl)pyridazin-4-yl]-3,8-diazabicyclo[3.2.1]octan-8-yl]-2-pyridyl]prop-2-ynyl]-6-methyl-azepan-4-ol], on BRG1, the DC50 was under 10 nM and the Dmax fell in the range of 71 to 120%. For the same compound, at BRM, the DC50 was under 10 nM and the “BRM IF Degradation Sinf (%)” value is reported as “F (F indicates −71%-−120%)”.

Regarding `Nc1nnc(-c2ccccc2O)cc1N1CC2CCC(C1)N2c1ccnc(C#CCN2CCC3CCC2C3)c1` (centres unmarked) [Compound 221, 2-[6-amino-5-[8-[2-[3-(2-azabicyclo[3.2.1]octan-2-yl)prop-1-ynyl]-4-pyridyl]-3,8-diazabicyclo[3.2.1]octan-3-yl]pyridazin-3-yl]phenol], at BRG1, the DC50 was under 10 nM and the Dmax was 30 to 70%. At BRM, the DC50 is under 10 nM and the “BRM IF Degradation Sinf (%)” value is reported as “E (E indicates −30%-−70%)”.

With `Nc1nnc(-c2ccccc2O)cc1N1CC2CCC(C1)N2c1ccnc(C#CCCN2CCCCCC2)c1` [Compound 222, 2-[6-amino-5-[8-[2-[4-(azepan-l-yl)but-1-ynyl]-4-pyridyl]-3,8-diazabicyclo[3.2.1]octan-3-yl]pyridazin-3-yl]phenol], on BRG1, the DC50 was under 10 nM and the Dmax fell in the range of 71 to 120%. In addition, on BRM, the DC50 was under 10 nM and the “BRM IF Degradation Sinf (%)” value is “F (F indicates −71%-−120%)”.

As for `Nc1nnc(-c2ccccc2O)cc1N1CC2CCC(C1)N2c1ccnc(C#CCN2CC(F)(F)C2)c1` [Compound 223, 2-[6-amino-5-[8-[2-[3-(3,3-difluoroazetidin-1-yl)prop-1-ynyl]-4-pyridyl]-3,8-diazabicyclo[3.2.1]octan-3-yl]pyridazin-3-yl]phenol], on BRG1, the DC50 was under 10 nM and the Dmax was in the range of 30 to 70%. Also, at BRM, the DC50 lay in the range of 10 to 100 nM and the “BRM IF Degradation Sinf (%)” value is reported as “E (E indicates −30%-−70%)”.

Regarding `CCOC1CN(CC#Cc2cc(N3C4CCC3CN(c3cc(-c5ccccc5O)nnc3N)C4)ccn2)C1` [Compound 224, 2-[6-amino-5-[8-[2-[3-(3-ethoxyazetidin-1-yl)prop-1-ynyl]-4-pyridyl]-3,8-diazabicyclo[3.2.1]octan-3-yl]pyridazin-3-yl]phenol], on BRG1, the DC50 is under 10 nM and the Dmax is 30 to 70%. Also, on BRM, the DC50 is under 10 nM and the “BRM IF Degradation Sinf (%)” value is listed as “E (E indicates −30%-−70%)”.

Consider `COC(=O)C1CN(CC#Cc2cc(N3C4CCC3CN(c3cc(-c5ccccc5O)nnc3N)C4)ccn2)C1` [Compound 225], for which, at BRG1, the DC50 is under 10 nM and the Dmax was in the range of 0 to 30%. In addition, at BRM, the DC50 lay within 10 to 100 nM and the “BRM IF Degradation Sinf (%)” value is listed as “E (E indicates −30%-−70%)”.

Turning to `Nc1nnc(-c2ccccc2O)cc1N1CC2CCC(C1)N2c1ccnc(C#CCN2CC(Oc3ccccc3)C2)c1` [Compound 226, 2-[6-amino-5-[8-[2-[3-(3-phenoxyazetidin-1-yl)prop-1-ynyl]-4-pyridyl]-3,8-diazabicyclo[3.2.1]octan-3-yl]pyridazin-3-yl]phenol], on BRG1, the DC50 is under 10 nM and the Dmax lay within 30 to 70%. For the same compound, at BRM, the DC50 was 10 to 100 nM and the “BRM IF Degradation Sinf (%)” value is reported as “E (E indicates −30%-−70%)”.

With `CS(=O)(=O)C1CN(CC#Cc2cc(N3C4CCC3CN(c3cc(-c5ccccc5O)nnc3N)C4)ccn2)C1` [Compound 227, 2-[6-amino-5-[8-[2-[3-(3-methylsulfonylazetidin-1-yl)prop-1-ynyl]-4-pyridyl]-3,8-diazabicyclo[3.2.1]octan-3-yl]pyridazin-3-yl]phenol], the DC50 on BRG1 was over 100 nM. For the same compound, at BRM, the DC50 was over 100 nM and the “BRM IF Degradation Sinf (%)” value is reported as “E (E indicates −30%-−70%)”.

Regarding `Nc1nnc(-c2ccccc2O)cc1N1CC2CCC(C1)N2c1ccnc(C#CCN2CC(F)C2)c1` [Compound 228, 2-[6-amino-5-[8-[2-[3-(3-fluoroazetidin-1-yl)prop-1-ynyl]-4-pyridyl]-3,8-diazabicyclo[3.2.1]octan-3-yl]pyridazin-3-yl]phenol], on BRG1, the DC50 is under 10 nM and the Dmax fell in the range of 0 to 30%. In addition, at BRM, the DC50 is under 10 nM and the “BRM IF Degradation Sinf (%)” value is on record as “E (E indicates −30%-−70%)”.

Consider `Nc1nnc(-c2ccccc2O)cc1N1CC2CCC(C1)N2c1ccnc(C#CCN2CC(N3CCOCC3)C2)c1` [Compound 229, 2-[6-amino-5-[8-[2-[3-(3-morpholinoazetidin-1-yl)prop-1-ynyl]-4-pyridyl]-3,8-diazabicyclo[3.2.1]octan-3-yl]pyridazin-3-yl]phenol], for which, on BRG1, the DC50 lay in the range of 10 to 100 nM and the Dmax is 30 to 70%. For the same compound, at BRM, the DC50 was 10 to 100 nM and the “BRM IF Degradation Sinf (%)” value is on record as “F (F indicates −71%-−120%)”.

Regarding `Nc1nnc(-c2ccccc2O)cc1N1CC2CCC(C1)N2c1ccnc(C#CCN2CC3(CCCCC3)C2)c1` [Compound 230, 2-[6-amino-5-[8-[2-[3-(2-azaspiro[3.5]nonan-2-yl)prop-1-ynyl]-4-pyridyl]-3,8-diazabicyclo[3.2.1]octan-3-yl]pyridazin-3-yl]phenol], on BRG1, the DC50 was in the range of 10 to 100 nM and the Dmax lay in the range of 30 to 70%. Besides, on BRM, the DC50 was 10 to 100 nM and the “BRM IF Degradation Sinf (%)” value is listed as “E (E indicates −30%-−70%)”.

On to `Nc1nnc(-c2ccccc2O)cc1N1CC2CCC(C1)N2c1ccnc(C#CCN2CC(c3ccncn3)C2)c1` [Compound 231, 2-[6-amino-5-[8-[2-[3-(3-pyrimidin-4-ylazetidin-1-yl)prop-1-ynyl]-4-pyridyl]-3,8-diazabicyclo[3.2.1]octan-3-yl]pyridazin-3-yl]phenol], for which, on BRG1, the DC50 is under 10 nM and the Dmax lay within 30 to 70%. In addition, at BRM, the DC50 is under 10 nM and the “BRM IF Degradation Sinf (%)” value is “E (E indicates −30%-−70%)”.

In the case of `Nc1nnc(-c2ccccc2O)cc1N1CC2CCC(C1)N2c1ccnc(C#CCN2CC(C(F)(F)F)C2)c1` [Compound 232, 2-[6-amino-5-[8-[2-[3-[3-(trifluoromethyl)azetidin-1-yl]prop-1-ynyl]-4-pyridyl]-3,8-diazabicyclo[3.2.1]octan-3-yl]pyridazin-3-yl]phenol], on BRG1, the DC50 was under 10 nM and the Dmax lay within 30 to 70%. In addition, at BRM, the DC50 was 10 to 100 nM and the “BRM IF Degradation Sinf (%)” value is “E (E indicates −30%-−70%)”.

Take `Nc1nnc(-c2ccccc2O)cc1N1CC2CCC(C1)N2c1ccnc(C#CCN2CC3(CC3)C2)c1` [Compound 233, 2-[6-amino-5-[8-[2-[3-(5-azaspiro[2.3]hexan-5-yl)prop-1-ynyl]-4-pyridyl]-3,8-diazabicyclo[3.2.1]octan-3-yl]pyridazin-3-yl]phenol]: on BRG1, the DC50 is under 10 nM and the Dmax is 30 to 70%. In addition, at BRM, the DC50 is under 10 nM and the “BRM IF Degradation Sinf (%)” value is listed as “E (E indicates −30%-−70%)”.

For the compound `Nc1nnc(-c2ccccc2O)cc1N1CC2CCC(C1)N2c1ccnc(C#CCN2CC(c3ccccc3)C2)c1` [Compound 234, 2-[6-amino-5-[8-[2-[3-(3-phenylazetidin-1-yl)prop-1-ynyl]-4-pyridyl]-3,8-diazabicyclo[3.2.1]octan-3-yl]pyridazin-3-yl]phenol], on BRG1, the DC50 was in the range of 10 to 100 nM and the Dmax fell in the range of 71 to 120%. On BRM, the DC50 was in the range of 10 to 100 nM and the “BRM IF Degradation Sinf (%)” value is given as “E (E indicates −30%-−70%)”.

The values above are taken from patent publication US11993599B2, “Therapeutic compounds” (Genentech, Inc., priority 2021, dated 2024).
